The source of these data is paper PMC2736342 (Biochemistry, 2009).

Where two headings read alike, the source gives them in different places. Ends that are not written are not given here. Peptide text beside a SMILES is read from it. * marks the point of attachment. Biotin = O=C1N[C@H]2[C@H](CS[C@H]2CCCCC(=O)*)N1

In assay [1] the target is I56C/Q333C Gαi GDP (Rattus norvegicus, UniProt P10824, I56C/INS119HHHHHH/Q333C). The experiment in a line: SPR binding to immobilized peptide, I56C/Q333C GDP. The settings on record: pH 7.4. For orientation: Surface plasmon resonance follows binding to a sensor surface in real time, without labels.
The target in assay [2] is D328R Gαi GDP (Rattus norvegicus, UniProt P10824, D328R/INS119HHHHHH). Briefly: SPR binding to immobilized peptide, D328R GDP. To be noted: pH 7.4.
Assay [3] concerns the target WT Gαi GDP (Rattus norvegicus, UniProt P10824, INS119HHHHHH). Briefly: SPR binding to immobilized peptide, wild-type GDP. The settings on record: pH 7.4.
Assay [4] concerns the target I56C/Q333C Gαi GDP•AlF4^− (Rattus norvegicus, UniProt P10824, I56C/INS119HHHHHH/Q333C). The experiment in a line: SPR binding to immobilized peptide, I56C/Q333C GDP-AlF4^−. To be noted: pH 7.4.
The target in assay [5] is D328R Gαi GDP•AlF4^− (Rattus norvegicus, UniProt P10824, D328R/INS119HHHHHH). The experiment in a line: SPR binding to immobilized peptide, D328R GDP-AlF4^−. To be noted: pH 7.4.
In assay [6] the target is WT Gαi GDP •AlF4^− (Rattus norvegicus, UniProt P10824, INS119HHHHHH). Briefly: SPR binding to immobilized peptide, wild-type GDP-AlF4^−. The settings on record: pH 7.4.
The target of assay [7] is T1, wild-type Gαi1 subunit (rat, UniProt P10824 2-354). The experiment in a line: SPR.
Assay [8] concerns the target T2, D328R Gαi1 subunit (rat, UniProt P10824 2-354, D328R). Briefly: SPR.
Assay [9] concerns the target T1, wild-type Gαi1 subunit. Briefly: SPR. This is another data set of the same source.
Assay [10] concerns the target T2, D328R Gαi1 subunit. The experiment in a line: SPR. The source holds these as a separate data set.

What is called koff is the rate constant with which the complex falls apart. Read a low koff as slow dissociation. Broadly, the kon is the second-order rate constant of association. Read a low kon as slow association. With `CSCC[C@H](NC(=O)[C@H](CC(C)C)NC(=O)[C@H](Cc1ccccc1)NC(=O)[C@H](CC(=O)O)NC(=O)[C@H](Cc1ccc(O)cc1)NC(=O)[C@H](Cc1c[nH]c2ccccc12)NC(=O)[C@@H](NC(=O)[C@@H](NC(=O)[C@H](CCCNC(=N)N)NC(=O)[C@@H](N)CO)C(C)C)[C@@H](C)O)C(=O)N[C@@H](CCC(=O)O)C(=O)N[C@@H](CC(=O)O)C(=O)N[C@H](C(=O)N[C@@H](CCCCN)C(=O)N[C@@H](CO)C(=O)N[C@@H](CCCNC(=N)N)C(=O)O)[C@@H](C)O` [KB-752] (H-SRVTWYDFLMEDTKSR-OH), the dissociation rate constant (koff) in assay [1] came out at 0.22 ± 0.03 s⁻¹; in assay [2] it was 0.01 ± 0.001 s⁻¹; in assay [3], 0.06 ± 0.01 s⁻¹. The kon in assay [1] was 7750 M⁻¹ s⁻¹; in assay [2] it was 8560 M⁻¹ s⁻¹; in assay [3], 21100 M⁻¹ s⁻¹.

`CC[C@H](C)[C@H](NC(=O)CNC(=O)[C@H](Cc1c[nH]cn1)NC(=O)[C@H](Cc1ccc(O)cc1)NC(=O)[C@H](Cc1ccc(O)cc1)NC(=O)CNC(=O)[C@H](CCCNC(=N)N)NC(=O)[C@H](CO)NC(=O)[C@@H](N)CO)C(=O)N[C@@H](Cc1c[nH]c2ccccc12)C(=O)N[C@H](C(=O)NCC(=O)N[C@@H](CCC(=O)O)C(=O)N[C@@H](CCC(=O)O)C(=O)NCC(=O)N[C@@H](CCCNC(=N)N)C(=O)N[C@@H](CC(C)C)C(=O)N[C@@H](CO)C(=O)N[C@@H](CCCNC(=N)N)C(=O)O)C(C)C` [KB-1753] (H-SSRGYYHGIWVGEEGRLSR-OH): the off-rate constant (koff) in assay [4] turned out to be 0.006 ± 0.0008 s⁻¹; in assay [5] it was 0.003 ± 0.0004 s⁻¹; in assay [6], 0.025 ± 0.001 s⁻¹. For the same molecule, the kon was 16800 M⁻¹ s⁻¹ in [4], 8810 M⁻¹ s⁻¹ in [5] and 22900 M⁻¹ s⁻¹ in assay [6].

Broadly, the Kd is the concentration at which binding is half-saturated. As for Biotin-SRVTWYDFLMEDTKSR [peptide KB-752], the dissociation constant Kd in assay [7] was found to be 2.84 ± 0.81 µM; in assay [8] it was 1.28 ± 0.02 µM.

Regarding Biotin-SSRGYYHGIWVGEEGRLSR [peptide KB-1753], the Kd in [9] turned out to be 1.1 ± 0.1 µM; in assay [10], 0.26 ± 0.04 µM.
